Measured values from patent US7834049B2, “Integrin expression inhibitor” (Eisai R&D Management Co., Ltd., priority 2000, dated 2010).
Values after ≈ are worked out from the molar mass of the structure shown.

Tests used:
integrin α3 [1] = assay: Integrin expression inhibitory action on human normal fibroblast cell line WI38; format: cell-based; details: WI38, higher concentration than in Examples 1 and 2 (0.5 μg/ml and 5 μg/ml), 48 hours
integrin β1 [2] = assay: Integrin expression inhibitory action on HUVEC (flow cytometer); format: cell-based, human; details: 0.05 μg/ml, 48 hours
Protocol: (§1) Human umbilical venous endothelial cells (HUVEC) of 5×10^5 in number were seeded in a 75 cm^2 cell culture bottle and then cultured using an EGM medium (Sanko Junyaku) at 37° C. in a CO2 incubator. Then, after 3 hours, the EGM medium was exchanged for the same medium including compound A, which was then cultured for further 48 hours. Next, the cells were collected and washed with a bovine serum albumin-containing phosphate buffer solution and the above buffer solution containing various anti-human integrin mouse antibodies was added to the cells and the solution containing cells was allowed to stand at 4° C. for 30 minutes. After washed, FITC connective anti-mouse IgG antibody was added to the cells, which was then allowed to stand for 30 minutes and washed again. Next, the cells were fixed and the amount of antibody connected per cell was measured as the amount of FITC by using a flow cytometer.

integrin β3 = assay: as above; format: cell-based, human; details: 0.05 μg/ml, 48 hours
Protocol: as §1

integrin α3 [3] = assay: as above; format: cell-based, human; details: 0.05 μg/ml, 48 hours
Protocol: as §1

integrin β5 = assay: as above; format: cell-based, human; details: 0.05 μg/ml, 48 hours
Protocol: as §1

integrin α2 [4] = assay: as above; format: cell-based, human; details: 0.05 μg/ml, 48 hours
Protocol: as §1

integrin α6 [5] = assay: as above; format: cell-based, human; details: 0.05 μg/ml, 48 hours
Protocol: as §1

integrin α5 [6] = assay: as above; format: cell-based, human; details: 0.05 μg/ml, 48 hours
Protocol: as §1

integrin αv = assay: as above; format: cell-based, human; details: 0.05 μg/ml, 48 hours
Protocol: as §1

integrin α1 = assay: Integrin expression inhibitory action on human normal fibroblast cell line WI38; format: cell-based; details: WI38, higher concentration than in Examples 1 and 2 (0.5 μg/ml and 5 μg/ml), 48 hours
integrin α2 [7] = assay: Integrin expression inhibitory action on human colonic cancer cell line HCT116-C9; format: cell-based
integrin β4 = assay: as above; format: cell-based
[8] = system: Human umbilical venous endothelial cells (HUVEC); assay: Antiangiogenic effect-2: HUVEC tube formation between collagen layers; format: cell-based; details: 96 h, HUVEC in type I collagen, 10 ng/ml EGF and 20 ng/ml bFGF, cultured 4 days, read-out: IC50, area of the formed tube
Protocol: 0.4 ml of type I collagen was added to a 24-well plate and solidified. Human umbilical venous endothelial cells (HUVEC) of 8×10^4 in number were seeded on the collagen and cultured overnight by using endothelial cells culture solution (Gibco BRL) containing 10 ng/ml EGF and 20 ng/ml bFGF. Next, the supernatant was removed and then 0.4 ml of the same collagen was overlaid. A culture solution containing 1.5 ml of the compound A was further added and the cells were cultured for 4 days. Thereafter, the area of the formed tube was measured quantitatively by image analysis.

[9] = system: human colic cancer cell strains (WiDr) chamber in C57 Black female mouse; assay: Antiangiogenic effect-3 (in vivo): mouse air capsule method with WiDr chamber; details: dose of 50 mg/kg, orally administered, once a day; measured 4 days after chamber transplantation
Protocol: The above activity was evaluated using a method obtained by improving a mouse air capsule method (Sakamoto et al., Cancer Res., 1, 55-57, 1986) in part. Specifically, a millipore ring (Nippon Millipore) was sealed using a 0.22 μm membrane filter (HAWPO, Nippon Millipore) to form a chamber. 1×10^7 human colic cancer cell strains (WiDr) which were suspended in a phosphoric acid buffer solution were sealed into the chamber. Next, an air capsule was formed on a subcutaneous site of the backside of a C57 Black female mouse of 6 to 8 weeks age and the foregoing chamber was transplanted to the air capsule. The compound A was orally administered after about 6 hours passed after the transplantation was finished and afterwards administered in sequence once a day for 3 days. The erythrocytes of the mouse that was labeled with ^51Cr was injected from the tail vein 4 days after the chamber was transplanted. […] Then, a value obtained by subtracting the amount of blood measured in the case of the chamber including no cancer cell from the above amount of blood was determined as the amount of angiogenesis. […] If the results are evaluated by T/C (%): the amount of angiogenesis of the compound-administered groups/the amount of angiogenesis of the vehicle-administered groups×100, the compound A had such an effect as T/C=53% at a dose of 50 mg/kg.

integrin α6 [10] = assay: Integrin expression inhibitory action on human colonic cancer cell line HCT116-C9; format: cell-based
Protocol: [Worded in the source for another cell line; this cell line is reported under the same test.] as §1
(§2) The integrin expression inhibitory action of the compound A on the above cells was examined in the same manner as in Example 1.

integrin β1 [11] = assay: Integrin expression inhibitory action on human normal fibroblast cell line WI38; format: cell-based; details: WI38, higher concentration than in Examples 1 and 2 (0.5 μg/ml and 5 μg/ml), 48 hours
Protocol: [Worded in the source for another cell line; this cell line is reported under the same test.] as §1, §2

integrin α2 [12] = assay: as above; format: cell-based; details: WI38, higher concentration than in Examples 1 and 2 (0.5 μg/ml and 5 μg/ml), 48 hours
Protocol: [Worded in the source for another cell line; this cell line is reported under the same test.] as §1, §2

integrin α6 [13] = assay: as above; format: cell-based; details: WI38, higher concentration than in Examples 1 and 2 (0.5 μg/ml and 5 μg/ml), 48 hours
Protocol: [Worded in the source for another cell line; this cell line is reported under the same test.] as §1, §2

integrin α5 [14] = assay: as above; format: cell-based; details: WI38, higher concentration than in Examples 1 and 2 (0.5 μg/ml and 5 μg/ml), 48 hours
Protocol: [Worded in the source for another cell line; this cell line is reported under the same test.] as §1, §2

integrin α5 [15] = assay: Integrin expression inhibitory action on human colonic cancer cell line HCT116-C9; format: cell-based
integrin α4 = assay: Integrin expression inhibitory action on human normal fibroblast cell line WI38; format: cell-based; details: WI38, higher concentration than in Examples 1 and 2 (0.5 μg/ml and 5 μg/ml), 48 hours
integrin α3 [16] = assay: Integrin expression inhibitory action on human colonic cancer cell line HCT116-C9; format: cell-based
integrin β1 [17] = assay: as above; format: cell-based
[18] = HCT116-C9, 0.05 μg/ml, 48 hours

## Cc1ccc(NS(=O)(=O)c2cccc(C#N)c2)c2[nH]cc(C#N)c12 [compound A, N-(3-Cyano-4-methyl-1H-indole-7-yl)-3-cyanobenzenesulfonamide]
Integrin α3 [1]
  expression of integrin α3: slightly inhibited
Integrin β1 [2]
  expression of integrin β1 on the surface of the cell: inhibited
Integrin β3
  expression of integrin β3 on the surface of the cell: inhibited
Integrin α3 [3]
  expression of integrin α3 on the surface of the cell: inhibited
Integrin β5
  expression of integrin β5 on the surface of the cell: inhibited
Integrin α2 [4]
  expression of integrin α2 on the surface of the cell: inhibited
Integrin α6 [5]
  expression of integrin α6 on the surface of the cell: inhibited
Integrin α5 [6]
  expression of integrin α5 on the surface of the cell: inhibited
Integrin αv
  expression of integrin αv on the surface of the cell: inhibited
Integrin α1
  expression of integrin α1: no influence
Integrin α2 [7]; [18]
  expression of integrin α2: inhibited
Integrin α2 [7]; HCT116-C9, 0.5 μg/ml
  expression of integrin α2: inhibited
Integrin β4; [18]
  expression of integrin β4: inhibited
Integrin β4; HCT116-C9, 0.5 μg/ml
  expression of integrin β4: inhibited
[8]
  IC50: 0.12 µg/mL (≈ 0.357 µM)
[9]
  T/C (%): amount of angiogenesis of compound-administered groups / vehicle-administered groups ×100: 53%
Integrin α6 [10]; [18]
  expression of integrin α6: inhibited
Integrin α6 [10]; HCT116-C9, 0.5 μg/ml
  expression of integrin α6: inhibited
Integrin β1 [11]
  expression of integrin β1: no influence
Integrin α2 [12]
  expression of integrin α2: slightly inhibited
Integrin α6 [13]
  expression of integrin α6: no influence
Integrin α5 [14]
  expression of integrin α5: no influence
Integrin α5 [15]; [18]
  expression of integrin α5: inhibited
Integrin α5 [15]; HCT116-C9, 0.5 μg/ml
  expression of integrin α5: inhibited
Integrin α4
  expression of integrin α4: slightly inhibited
Integrin α3 [16]; [18]
  expression of integrin α3: inhibited
Integrin α3 [16]; HCT116-C9, 0.5 μg/ml
  expression of integrin α3: inhibited
Integrin β1 [17]; [18]
  expression of integrin β1: inhibited
Integrin β1 [17]; HCT116-C9, 0.5 μg/ml
  expression of integrin β1: inhibited
